In ChEMBL document CHEMBL1145756, “Structure-activity relationships of indole cytosolic phospholipase A(2)alpha inhibitors: substrate mimetics” (Bioorg Med Chem Lett, 2003):
Blank lines part the entries; values can stand above or below the compound they belong to.

Key:
[1] = biological target: T1, Cytosolic phospholipase A2 (Homo sapiens, UniProt P47712); assay: In vitro inhibition of cystolic phospholipase A2 alpha.
T1 sequence (P47712 whole entry): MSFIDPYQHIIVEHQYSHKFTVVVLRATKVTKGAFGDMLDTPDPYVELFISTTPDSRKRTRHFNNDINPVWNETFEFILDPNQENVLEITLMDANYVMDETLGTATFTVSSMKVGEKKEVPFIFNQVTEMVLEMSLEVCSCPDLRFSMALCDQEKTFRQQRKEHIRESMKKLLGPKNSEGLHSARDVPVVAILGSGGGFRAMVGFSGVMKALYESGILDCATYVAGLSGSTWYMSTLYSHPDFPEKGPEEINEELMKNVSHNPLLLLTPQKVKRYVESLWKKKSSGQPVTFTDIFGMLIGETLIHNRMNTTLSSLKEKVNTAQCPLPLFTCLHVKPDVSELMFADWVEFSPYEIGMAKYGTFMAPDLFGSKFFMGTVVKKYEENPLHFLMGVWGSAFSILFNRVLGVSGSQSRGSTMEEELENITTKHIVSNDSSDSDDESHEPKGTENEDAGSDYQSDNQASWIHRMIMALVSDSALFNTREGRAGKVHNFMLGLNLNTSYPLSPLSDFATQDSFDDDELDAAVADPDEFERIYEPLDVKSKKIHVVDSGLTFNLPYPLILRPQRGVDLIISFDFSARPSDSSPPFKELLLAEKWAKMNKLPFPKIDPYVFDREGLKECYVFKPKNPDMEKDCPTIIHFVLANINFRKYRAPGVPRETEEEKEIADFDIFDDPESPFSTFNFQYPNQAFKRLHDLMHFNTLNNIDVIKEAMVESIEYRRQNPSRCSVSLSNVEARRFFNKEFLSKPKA

[2] = Oral bioavailability in rat (dose 10 mg/kg); format: ADME, organism-based; conditions: in vivo
[3] = biological target: T1, Cytosolic phospholipase A2; assay: Inhibitory concentration against cystolic phospholipase A2 alpha receptor (c-PLA2 alpha) using coumarin assay
Homo sapiens = organism: Homo sapiens; assay: Inhibitory concentration against arachidonic acid release determined in human neutrophils PMN assay; format: functional

IC50 [1]: 1000 nM
SMILES: COc1cc(C(=O)O)ccc1Cc1cn(C(c2ccccc2)c2ccccc2)c2ccc(F)cc12

bioavailability [2]: 63% | IC50 [1]: 800 nM
SMILES: COc1cc(C(=O)O)ccc1Cc1cn(C(c2ccccc2)c2ccccc2)c2cc(Cl)ccc12

IC50 [1]: 3600 nM
SMILES: COc1cc(C(=O)O)ccc1Cc1cn(C(c2ccccc2)c2ccccc2)c2ccccc12

bioavailability [2]: 16% | IC50 [3]: 600 nM | IC50 (Homo sapiens): 1200 nM
SMILES: COc1cc(C(=O)O)ccc1Cc1cn(C(c2ccccc2)c2ccccc2)c2ccc(Br)cc12

IC50 [1]: 41000 nM
SMILES: COc1cc(C(=O)O)ccc1Cc1cn(C(c2ccccc2)c2ccccc2)c2ccc(N)cc12

bioavailability [2]: 38% | IC50 [3]: 900 nM
SMILES: COc1cc(C(=O)O)ccc1Cc1cn(C(c2ccccc2)c2ccccc2)c2ccc(C)cc12

IC50 [1]: 24000 nM
SMILES: COc1cc(C(=O)O)ccc1Cc1cn(C(c2ccccc2)c2ccccc2)c2ccc(N(C)C)cc12

bioavailability [2]: 22% | IC50 [3]: 400 nM | IC50 (Homo sapiens): 1800 nM
SMILES: COc1cc(C(=O)O)ccc1Cc1cn(C(c2ccccc2)c2ccccc2)c2ccc(Cl)cc12

IC50 [3]: 400 nM | IC50 (Homo sapiens): 1800 nM
SMILES: COc1cc(C(=O)O)ccc1Cc1cn(C(c2ccccc2)c2ccccc2)c2ccc([N+](=O)[O-])cc12

IC50 [1]: 1900 nM
SMILES: COc1ccc2c(c1)c(Cc1ccc(C(=O)O)cc1OC)cn2C(c1ccccc1)c1ccccc1

bioavailability [2]: 19% | IC50 [3]: 800 nM | IC50 (Homo sapiens): 1300 nM
SMILES: COc1cc(C(=O)O)ccc1Cc1cn(C(c2ccccc2)c2ccccc2)c2ccc(C#N)cc12

The remaining lines, values behind:

SMILES: COc1cc(C(=O)O)ccc1Cc1cn(C(c2ccccc2)c2ccccc2)c2ccc(NC(=O)OC3CCCC3)cc12
IC50 [1]: 5000 nM

SMILES: COc1cc(C(=O)O)ccc1Cc1cn(C(c2ccccc2)c2ccccc2)c2ccc(NS(C)(=O)=O)cc12
IC50 [1]: 20000 nM

SMILES: COc1cc(C(=O)O)ccc1Cc1cn(C(c2ccccc2)c2ccccc2)c2ccc(S(C)(=O)=O)cc12
IC50 [1]: 2000 nM

SMILES: COc1cc(C(=O)O)ccc1Cc1cn(C(c2ccccc2)c2ccccc2)c2cccc(Cl)c12
IC50 [1]: 4500 nM

SMILES: COc1cc(C(=O)NS(=O)(=O)c2ccccc2C)ccc1Cc1cn(Cc2ccncc2)c2ccc(NC(=O)OC3CCCC3)cc12
IC50 [1]: 38000 nM

SMILES: CCCCNC(=O)Nc1ccc2c(c1)c(Cc1ccc(C(=O)O)cc1OC)cn2C(c1ccccc1)c1ccccc1
IC50 [1]: 15000 nM

SMILES: COc1cc(C(=O)NS(=O)(=O)c2ccccc2C)ccc1Cc1cn(C2CCCC2)c2ccc(NC(=O)OC3CCCC3)cc12
IC50 [1]: 17000 nM

SMILES: COc1cc(C(=O)NS(=O)(=O)c2ccccc2C)ccc1Cc1cn(CC2CC2)c2ccc(NC(=O)OC3CCCC3)cc12
IC50 [1]: 20000 nM

SMILES: COc1cc(C(=O)O)ccc1Cc1cn(C(c2ccccc2)c2ccccc2)c2c(Cl)cccc12
IC50 [1]: 2100 nM

SMILES: COc1cc(C(=O)NS(=O)(=O)c2ccccc2C)ccc1Cc1cn(C(c2ccccc2)c2ccccc2)c2ccc(NC(=O)OC3CCCC3)cc12
IC50 [1]: 6000 nM

SMILES: COc1cc(C(=O)NS(=O)(=O)c2ccccc2C)ccc1Cc1cn(C)c2ccc(NC(=O)OC3CCCC3)cc12 [ZAFIRLUKAST]
IC50 [1]: 85000 nM
